Test results taken from patent US7196112B2, “Cell adhesion inhibitors” (Biogen Idec MA Inc., priority 2004, dated 2007).
Where two headings read alike, the source gives them in different places.

Columns and labels:
[1] = target: T1, α4β1 (Homo sapiens, UniProt P05556+P13612); experiment: Equilibrium binding on Jurkat cells, competition with 35S-B as reporter
Description: The α4β1-expressing Jurkat human T-cell line (a gift from S. Burakoff, Dana Farber Cancer Institute, Boston, Mass.), and the α4β7-expressing human B-cell line, JY (American Type Tissue Collection, Rockville, Md.) were maintained in culture at 37° C. in RPMI-1640 medium supplemented with 10% fetal bovine serum (FBS). K562 cell lines transfected with either the human α1-integrin chain (Phil Gotwells, Biogen, Inc) or with the human α2 integrin chain (a gift from M. Hemler, Dana Farber Cancer Institute, Boston, Mass.) were maintained in RPMI-1640 medium supplemented with 10% FBS and 1 mg/mL G418. All cells were periodically monitored for high integrin surface expression by FACS analysis. The binding of the various inhibitors to α4β1 were assessed on Jurkat cells by competition using radioactive ^35S-B as a reporter for a 1 occupancy. Jurkat cells were pelleted by centrifugation, washed two times with TBS (50 mM Tris HCl, 150 mM NaCl, 0.1% bovine serum albumin, 2 mM glucose, 10 mM HEPES pH 7.4), suspended at approximately 2×10^6 cells/mL in TBS, and counted using a Neubauer hemocytometer. The cells were further diluted 2×10^6 cells/mL with TBS containing 1 mM CaCl2 and 1 mM MgCl2 and treated with serial dilutions of test compound for 1 hour, and then 5 nM ^35S-B, an amount sufficient to bind all unoccupied receptors, was added for 10 minutes before measuring the bound counts. The cells were then pelleted by centrifugation, resuspended in 100 μL of TBS plus Mn^2+, and transferred to a scintillation vial containing 2.9 mL of ScintiVerse II (Fisher Scientific). Cell-associated radioactivity was quantified by scintillation counting. All studies were performed in siliconized 1.5 mL eppendorf tubes with a standard 1 mL sample volume. Each condition was tested in at least two independent studies. Non-specific binding of ^35S-B to cells was assessed at each cell density and ^35S-B concentration in TBS but in the absence of added metal ion. Specific counts bound were calculated by subtracting non specific counts from total counts bound. Counts bound under these conditions measures integrin that is not occupied by the test compound and is therefore free to bind the ^35S-B. The competition format was also used for kinetic binding studies. Binding and dissociation constants were calculated from α4β1 that remained free to bind the ^35S-B after treatment with test compound.
The affinities of the PEGylated inhibitors for α4β1 were calculated from association and disassociation rate constants using a kinetic analysis. For these studies, Jurkat cells expressing α4β1 (75,000 copies/cell) were treated with the inhibitors and then ^35S-B was added as a probe to detect free α4β1. The levels of bound inhibitor were calculated from a measure of total ^35S-B bound in the absence of added inhibitor and counts bound following inhibitor treatment. […] IC50 values were calculated from equilibrium binding studies on Jurkat cells through competition using ^35S-B as a reporter in buffer containing 1 mM Ca^2+ and 1 mM Mg^2+.
Second, the effect of protein binding on the affinity of the PEGylated inhibitors for α4β1 on Jurkat cells was evaluated from equilibrium binding measurements.

[2] = target: T1, α4β1; experiment: Kinetic binding to α4β1 on Jurkat cells, competition with 35S-B as probe for free α4β1; design: endogenous in cells; host or cells: Jurkat human T-cell line; settings: for Kd: calculated from on- and off-rate constants; for koff: read-out: koff/10^−4; for kon: read-out: kon/10^6
Description: All cells were periodically monitored for high integrin surface expression by FACS analysis. The binding of the various inhibitors to α4β1 were assessed on Jurkat cells by competition using radioactive ^35S-B as a reporter for a 1 occupancy. Jurkat cells were pelleted by centrifugation, washed two times with TBS (50 mM Tris HCl, 150 mM NaCl, 0.1% bovine serum albumin, 2 mM glucose, 10 mM HEPES pH 7.4), suspended at approximately 2×10^6 cells/mL in TBS, and counted using a Neubauer hemocytometer. The cells were further diluted 2×10^6 cells/mL with TBS containing 1 mM CaCl2 and 1 mM MgCl2 and treated with serial dilutions of test compound for 1 hour, and then 5 nM ^35S-B, an amount sufficient to bind all unoccupied receptors, was added for 10 minutes before measuring the bound counts. The cells were then pelleted by centrifugation, resuspended in 100 μL of TBS plus Mn^2+, and transferred to a scintillation vial containing 2.9 mL of ScintiVerse II (Fisher Scientific). Cell-associated radioactivity was quantified by scintillation counting. All studies were performed in siliconized 1.5 mL eppendorf tubes with a standard 1 mL sample volume. Each condition was tested in at least two independent studies. Non-specific binding of ^35S-B to cells was assessed at each cell density and ^35S-B concentration in TBS but in the absence of added metal ion. Specific counts bound were calculated by subtracting non specific counts from total counts bound. Counts bound under these conditions measures integrin that is not occupied by the test compound and is therefore free to bind the ^35S-B. The competition format was also used for kinetic binding studies. Binding and dissociation constants were calculated from α4β1 that remained free to bind the ^35S-B after treatment with test compound.
The affinities of the PEGylated inhibitors for α4β1 were calculated from association and disassociation rate constants using a kinetic analysis. For these studies, Jurkat cells expressing α4β1 (75,000 copies/cell) were treated with the inhibitors and then ^35S-B was added as a probe to detect free α4β1. The levels of bound inhibitor were calculated from a measure of total ^35S-B bound in the absence of added inhibitor and counts bound following inhibitor treatment.

[3] = target: T1, α4β1; experiment: VCAM-Ig direct binding assay (DBA), Jurkat cells
Excerpt: A direct binding assay may also be employed to quantitate the inhibitory activity of the compounds. In this assay, a VCAM-IgG fusion protein containing the first two immunoglobulin domains of VCAM (D1D2) attached above the hinge region of an IgG1 molecule (“VCAM 2D-IgG”), is conjugated to a marker enzyme, such as alkaline phosphatase (“AP”). […] The conjugation of that fusion to a marker enzyme is achieved by cross-linking methods well-known in the art.
The VCAM-IgG enzyme conjugate is then placed in the wells of a multi-well filtration plate, such as that contained in the Millipore Multiscreen Assay System (Millipore Corp., Bedford, Mass.). Varying concentrations of the test inhibitory compound are then added to the wells followed by addition of VLA-4-expressing cells. The cells, compound and VCAM-IgG enzyme conjugate are mixed together and allowed to incubate at room temperature. Following incubation, the wells are vacuum drained, leaving behind the cells and any bound VCAM. Quantitation of bound VCAM is determined by adding an appropriate calorimetric substrate for the enzyme conjugated to VCAM-IgG and determining the amount of reaction product. Decreased reaction product indicates increased binding inhibitory activity.
Samples were also evaluated for function using the VCAM-Ig direct binding assay. Details for the construction of the VCAM-Ig animal cell expression vector, the generation of a Chinese hamster ovary (CHO) cell line expressing VCAM-Ig, conjugation of the VCAM-Ig to alkaline phosphatase, and the development of a direct binding assay for characterizing α4β1 and α4β7 binding to VCAM-Ig were as previously described (see Lobb, R. R., et al. (1995) Cell Adhes. Commun. 3:385–397).
For these studies, a series of compounds based on compound E containing 0.35, 2, 5, 20, 30, and 50 kDa-mPEG was synthesized and tested for binding to α4β1 on Jurkat cells with VCAM-Ig as a reporter (see methods).

[4] = IC50, buffer with 1 mM Ca2+ and 1 mM Mg2+, no plasma

T1 sequence (P13612 34-1032): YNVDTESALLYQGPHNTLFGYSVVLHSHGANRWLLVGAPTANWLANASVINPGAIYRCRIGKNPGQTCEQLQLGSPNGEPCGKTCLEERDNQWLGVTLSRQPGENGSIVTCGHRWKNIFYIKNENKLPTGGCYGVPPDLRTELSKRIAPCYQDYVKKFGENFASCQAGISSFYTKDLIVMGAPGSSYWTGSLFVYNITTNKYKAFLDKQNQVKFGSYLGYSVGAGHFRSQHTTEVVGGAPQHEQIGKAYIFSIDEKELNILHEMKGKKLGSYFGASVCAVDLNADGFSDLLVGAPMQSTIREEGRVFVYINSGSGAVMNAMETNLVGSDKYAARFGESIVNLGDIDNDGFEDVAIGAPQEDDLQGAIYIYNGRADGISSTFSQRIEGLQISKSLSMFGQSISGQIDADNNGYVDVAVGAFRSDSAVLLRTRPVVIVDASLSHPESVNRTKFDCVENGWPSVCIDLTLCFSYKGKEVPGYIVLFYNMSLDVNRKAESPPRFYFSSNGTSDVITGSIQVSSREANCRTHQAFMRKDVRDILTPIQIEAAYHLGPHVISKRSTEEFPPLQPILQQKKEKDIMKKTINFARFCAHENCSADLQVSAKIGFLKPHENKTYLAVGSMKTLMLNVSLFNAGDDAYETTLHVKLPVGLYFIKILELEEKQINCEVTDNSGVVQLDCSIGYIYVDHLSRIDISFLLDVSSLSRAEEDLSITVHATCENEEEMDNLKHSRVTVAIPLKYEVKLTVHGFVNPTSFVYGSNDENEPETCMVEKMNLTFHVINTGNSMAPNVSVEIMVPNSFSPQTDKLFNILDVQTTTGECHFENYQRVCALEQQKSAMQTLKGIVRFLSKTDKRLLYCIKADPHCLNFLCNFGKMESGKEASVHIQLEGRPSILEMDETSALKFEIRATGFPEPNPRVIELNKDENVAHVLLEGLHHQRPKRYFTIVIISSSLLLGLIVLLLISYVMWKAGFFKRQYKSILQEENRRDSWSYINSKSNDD
T1 sequence (P05556 21-798): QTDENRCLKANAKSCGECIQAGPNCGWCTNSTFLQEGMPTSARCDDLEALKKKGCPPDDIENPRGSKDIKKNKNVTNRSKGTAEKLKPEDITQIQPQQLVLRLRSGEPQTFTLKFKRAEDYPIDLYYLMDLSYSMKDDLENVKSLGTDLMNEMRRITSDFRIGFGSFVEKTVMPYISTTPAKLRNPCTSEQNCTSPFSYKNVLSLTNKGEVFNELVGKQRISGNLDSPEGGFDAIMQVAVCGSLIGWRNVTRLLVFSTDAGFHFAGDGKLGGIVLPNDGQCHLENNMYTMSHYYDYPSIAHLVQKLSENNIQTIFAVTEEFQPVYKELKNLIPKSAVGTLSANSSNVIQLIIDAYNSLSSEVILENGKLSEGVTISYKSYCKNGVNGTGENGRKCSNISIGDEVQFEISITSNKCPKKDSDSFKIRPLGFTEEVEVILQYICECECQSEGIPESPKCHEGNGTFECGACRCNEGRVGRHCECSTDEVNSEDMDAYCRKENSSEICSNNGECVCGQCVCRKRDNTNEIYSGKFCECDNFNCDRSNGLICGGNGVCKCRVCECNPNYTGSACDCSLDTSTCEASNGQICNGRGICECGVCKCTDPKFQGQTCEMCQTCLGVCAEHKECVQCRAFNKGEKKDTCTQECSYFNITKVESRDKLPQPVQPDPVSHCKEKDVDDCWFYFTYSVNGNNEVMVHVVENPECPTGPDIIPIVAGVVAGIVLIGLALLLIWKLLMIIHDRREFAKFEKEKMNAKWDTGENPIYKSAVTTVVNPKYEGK

In the case of `Cc1ccccc1NC(=O)Nc1ccc(CC(=O)N(C)C(CC(C)C)C(=O)NCCC(NC(=O)[C@@H]2C[C@H](NC(=O)CCCCCN)CN2S(=O)(=O)c2ccccc2)C(=O)O)cc1` (relative stereo) [D], the IC50 ([1]; IC50(HP), 100% human plasma) is reported as 7.9 nM, the IC50 [1, 4] is reported as 1.5 nM and the Kd ([2]; Jurkat cells) is reported as 0.061 nM. It also gave a koff [2] of 0.0002 s⁻¹ and a kon [2] of 3.3e+06 M⁻¹ s⁻¹.

`Cc1ccccc1NC(=O)Nc1ccc(CC(=O)N(C)C(CC(C)C)C(=O)NCCC(NC(=O)[C@@H]2C[C@@H](NC(=O)CCCCCN)CN2S(=O)(=O)c2ccccc2)C(=O)O)cc1` (relative stereo) [E] was tested, and the IC50 ([1]; IC50(HP), 100% human plasma) was 2.3 nM, the IC50 [1, 4] was 1.4 nM and the Kd ([2]; Jurkat cells) was 0.044 nM. It also gave a koff [2] of 0.00011 s⁻¹ and a kon [2] of 2.5e+06 M⁻¹ s⁻¹.

`Cc1ccccc1NC(=O)Nc1ccc(CC(=O)N(C)[C@@H](CC(C)C)C(=O)NCC[C@H](NC(=O)[C@@H]2C[C@@H](N)CN2S(=O)(=O)c2ccccc2)C(=O)O)cc1` [C] was tested, and the IC50 ([1]; IC50(HP), 100% human plasma) was 2.1 nM, the IC50 [1, 4] was 1.2 nM and the koff ([2]; Jurkat cells, 35S-B probe) was 0.00012 s⁻¹. The kon ([2]; Jurkat cells, 35S-B probe) was 3e+06 M⁻¹ s⁻¹ and the Kd ([2]; Jurkat cells) was 0.04 nM.

For `Cc1ccccc1NC(=O)Nc1ccc(CC(=O)N(C)[C@@H](CCCCNC(=O)CCCCCN)C(=O)NCC[C@H](NC(=O)[C@@H]2CCCN2S(=O)(=O)c2ccccc2)C(=O)O)cc1` [Compound A, 4-[6-(6-Amino-hexanoylamino)-2(S)-(methyl-{2-[4-(3-o-tolyl-ureido)-phenyl]-acetyl}-amino)-hexanoylamino]-2(S)-[(1-benzenesulfonyl-pyrrolidine-2(S)-carbonyl)-amino]-butyric acid], the IC50 ([1]; IC50(HP), 100% human plasma) was 2.1 nM, the IC50 [1, 4] was 0.35 nM and the Kd ([2]; Jurkat cells) was 0.25 nM. It also gave a koff [2] of 0.00053 s⁻¹ and a kon [2] of 2e+06 M⁻¹ s⁻¹.

For `Cc1ccccc1NC(=O)Nc1ccc(CC(=O)N(C)[C@@H](CC(C)C)C(=O)NCC[C@H](NC(=O)[C@@H]2C[C@H](N)CN2S(=O)(=O)c2ccccc2)C(=O)O)cc1` [F], the IC50 ([1]; IC50(HP), 100% human plasma) was 8.7 nM, the IC50 [1, 4] was 3.5 nM and the koff ([2]; Jurkat cells, 35S-B probe) was 0.00024 s⁻¹. The kon ([2]; Jurkat cells, 35S-B probe) was 3.4e+06 M⁻¹ s⁻¹ and the Kd ([2]; Jurkat cells) was 0.07 nM.

With `Cc1ccccc1NC(=O)Nc1ccc(CC(=O)N(C)C(CC(C)C)C(=O)NCCC(NC(=O)C2CC(NC(=O)CCCCCNC(=O)CCCCCCC(=O)NCCCCCC(=O)NC3CC(C(=O)NC(CCNC(=O)C(CC(C)C)N(C)C(=O)Cc4ccc(NC(=O)Nc5ccccc5C)cc4)C(=O)O)N(S(=O)(=O)c4ccccc4)C3)CN2S(=O)(=O)c2ccccc2)C(=O)O)cc1` (stereo not drawn) [Q] the “DBA 100% rat plasma, % @ 50 nM” value ([3]; 100% rat plasma, 50 nM) was “(0% @”, the IC50 ([3]; read-out: DBA IC50 Ca2+Mg2+, Ca2+Mg2+) was 74 nM and the IC50 ([3]; read-out: DBA IC50 Mn2+, Mn2+) was 4.3 nM. For the same compound, the “% bound Ca2+Mg2+ 30 min” value ([2]; Ca2+Mg2+, 30 min) was 0.1% and the “% bound Mn2+ 60 min” value ([2]; Mn2+, 60 min) was 93%.
